The target of assay [1] is T1, PKMζ (Homo sapiens, UniProt Q05513).
T1 construct: made in house; host or cells: Spodoptera frugiperda Sf9 cells, baculovirus
T1 sequence (Q05513 1-409 isoform Q05513-2): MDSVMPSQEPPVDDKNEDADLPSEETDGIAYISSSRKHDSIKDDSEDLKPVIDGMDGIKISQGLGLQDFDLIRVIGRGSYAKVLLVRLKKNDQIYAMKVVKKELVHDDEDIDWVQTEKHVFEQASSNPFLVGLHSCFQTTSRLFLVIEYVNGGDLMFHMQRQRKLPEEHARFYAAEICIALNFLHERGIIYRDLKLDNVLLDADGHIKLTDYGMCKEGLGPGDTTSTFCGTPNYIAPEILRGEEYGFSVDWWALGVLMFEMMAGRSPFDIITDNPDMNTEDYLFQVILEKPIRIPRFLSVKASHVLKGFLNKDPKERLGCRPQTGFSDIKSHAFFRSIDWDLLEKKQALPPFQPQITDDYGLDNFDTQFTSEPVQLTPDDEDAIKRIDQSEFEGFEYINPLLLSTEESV
The assay can be described thus: Inhibition of PKMζ (IC50). Type of assay: biochemical.

Another assay has as its target PKC gamma (Homo sapiens, UniProt P05129). The assay can be described thus: Inhibition of PKC gamma (IC50). The assay is classed as biochemical.
A further assay deals with LTP maintenance. The assay can be described thus: Reversal of LTP maintenance. The assay is classed as cell-based. Conditions: 1 μM.
The target in assay [2] is T1, PKMζ. The assay can be described thus: Inhibition of phosphorylation of exogenous substrates by various protein kinases (specificity of chelerythrine). Conditions: versus PKC alpha, PKC epsilon (MBP substrate), CaM-kinase II (Syntide). Type of assay: biochemical. The source says:
PKCA is PKC alpha phosphorylation of myelin basic protein (MBP). PKCE is PKC epsilon phosphorylation of MBP. PKM is PKMζ phosphorylation of MBP. CKII is Ca^2+-calmodulin-dependent protein kinase II phosphorylation of Syntide® (Calbiochem, San Diego, Calif.) peptide substrate.

Assay [3] has as its system AMPA/kainate EPSCs in CA1 pyramidal cells. The assay can be described thus: Intracellular perfusion of PKMζ into CA1 pyramidal cells, whole-cell recording of evoked EPSCs. Type of assay: cell-based, Sprague-Dawley rats. Here is the method: PKMζ, purified from a baculovirus/Sf9 expression system to near homogeneity, was perfused into a CA1 pyramidal cell through a whole cell recording pipette (FIGS. 1A-1B). […] In order to isolate AMPA/kainate responses, the cell, recorded at the soma, was voltage-clamped at the IPSC reversal potential (˜−70) and Cs-gluconate-based electrode solution was used (to block GABAB effects). […] Over 5-10 min, there was ˜60% increase in AMPA/kainate EPSCs, which then stabilized. In contrast, inactivated PKMζ had no effect.
Hippocampal slices were prepared from Sprague-Dawley rats as described in Example 2. Patch electrodes were pulled (two-stage) from […] O.D. borosilicate glass (World Precision Instruments, Sarasota, Fla.) on a Narishige PP-83 vertical puller. Recording pipettes had tip resistances of 2-5 MΩ and contain (in mM): Cs-gluconate or K-gluconate 130-; MgCl2, 2; CaCl2, 2; EGTA, 10; HEPES, 10; Na-ATP, 2; pH adjusted to 7.25 with either CsOH or KOH. […] Cesium was used to block potassium currents, including slow GABAB IPSCs. Electrode solutions included QX-314 (10 mM) to block […] currents to prevent cell spike discharges at depolarized holding potentials. Whole-cell recordings were obtained from CA1 pyramidal cells using blind patch techniques. The recording pipette was slowly advanced through the tissue, with brief voltage steps (−10 mV, 10 ms) applied to monitor electrode resistance. Once a deflection in the electrode's current response was detected signifying contact with the membrane of the target cell soma, slight negative pressure was applied to form a cell-electrode seal of >1 GΩ.
Membrane breakthrough was accomplished with either additional suction or current pulses. […] Signals were recorded under voltage-clamp with an Axoclamp 2A amplifier (Axon Instruments, Foster City, Calif.). Resting input resistance was measured from the current response to a −10 mV voltage step from holding potential. […]
The effects of PKMζ cell injection on excitatory synaptic currents were assessed by including the kinase in the whole-cell pipette and measuring EPSC amplitude over time. […]

These results are taken from US7605119B2, “Memory enhancing protein method” (The Research Foundation of State University of New York, priority 2000, dated 2009).

Residues, ends and D or L forms follow the SMILES beside them.

By IC50 is commonly meant the concentration that gives 50% inhibition. A higher IC50 goes with weaker potency in that assay. With `CCCCCCCCCCCCCC(=O)N[C@@H](CO)C(=O)N[C@H](C(=O)N[C@@H](Cc1ccc(O)cc1)C(=O)N[C@@H](CCCNC(=N)N)C(=O)N[C@@H](CCCNC(=N)N)C(=O)NCC(=O)N[C@@H](C)C(=O)N[C@@H](CCCNC(=N)N)C(=O)N[C@@H](CCCNC(=N)N)C(=O)N[C@@H](Cc1c[nH]c2ccccc12)C(=O)N[C@@H](CCCNC(=N)N)C(=O)N[C@@H](CCCCN)C(=O)N[C@@H](CC(C)C)C(=O)O)[C@@H](C)CC` [MZIP, myr-Ser-Ile-Tyr-Arg-Arg-Gly-Ala-Arg-Arg-Trp-Arg-Lys-Leu-OH] (HELM PEPTIDE1{[CCCCCCCCCCCCCC(=O)[*:2]].S.I.Y.R.R.G.A.R.R.W.R.K.L}$$$$V2.0), the IC50 against PKMζ [1] was 0.01 to 0.1 µM; against PKC gamma it was 10 µM. Also, the “effect on LTP maintenance” value in the assay on LTP maintenance is “reverses LTP maintenance”.
On to `COc1ccc2c(c[n+](C)c3c4cc5c(cc4ccc23)OCO5)c1OC` [chelerythrine], for which the “selectivity as an inhibitor of PKM activity relative to other protein kinases” value at PKMζ [2] was “greater than 10 fold”. For the same molecule, the “reversal of PKMζ-induced increases in synaptically evoked AMPA/kainate responses” value in assay [3] (3 nM PKM in pipette, chelerythrine 1 uM in bath) was “reversible”.
In the case of “PKMζ: independent catalytic domain of the PKCζ isoform, purified from a baculovirus/Sf9 expression system”, the “increase in AMPA/kainate EPSCs” value in assay [3] (about 0.8 nM PKMζ in whole cell pipette, over 5-10 min, then stabilized, voltage-clamped ~-70) is reported as roughly 60%. In addition, the “potency in potentiation of AMPA/kainate currents relative to CaM-kinase II” value in assay [3] (compared with reported concentration of autoactive thiophosphorylated CaM-kinase II) is reported as 200- to 1000 fold.
